For assay [1], the target named is Melanocyte-stimulating hormone receptor (Homo sapiens, UniProt Q01726). The experiment in a line: Binding affinity to MC1 receptor.
The target of a further assay is Melanocortin receptor 3 (Homo sapiens, UniProt P41968). The assay can be described thus: Binding affinity to MC3 receptor.
The target of assay [2] is T1, Melanocortin receptor 4 (Homo sapiens, UniProt P32245). The experiment in a line: Binding affinity to MC4 receptor.
Assay [3] has as its target T1, Melanocortin receptor 4. The assay can be described thus: Agonist potency at MC4 receptor. It counts as functional.

Where a SMILES comes first, the peptide text is derived from it. [ ]: non-standard residue; d: D form. 2Nal = N[C@@H](Cc1ccc2ccccc2c1)C(=O)O

As a reminder, the Ki is a dissociation constant, usually derived from enzyme kinetics or from competition with a known ligand. By EC50 is commonly meant the midpoint of the concentration-response curve. Lower therefore signals an effect from little substance. The term Emax denotes the greatest response seen or fitted, relative to the assay's reference.

Chain of Melanocyte-stimulating hormone receptor (Q01726 whole entry): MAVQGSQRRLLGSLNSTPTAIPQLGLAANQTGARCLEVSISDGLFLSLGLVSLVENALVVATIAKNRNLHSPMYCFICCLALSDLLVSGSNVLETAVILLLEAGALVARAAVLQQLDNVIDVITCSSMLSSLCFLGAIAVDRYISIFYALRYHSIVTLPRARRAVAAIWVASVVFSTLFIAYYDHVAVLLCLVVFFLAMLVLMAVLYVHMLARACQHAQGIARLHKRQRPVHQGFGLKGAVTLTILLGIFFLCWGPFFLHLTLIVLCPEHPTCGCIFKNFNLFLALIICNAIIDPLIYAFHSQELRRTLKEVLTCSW
Chain of Melanocortin receptor 3 (P41968 whole entry): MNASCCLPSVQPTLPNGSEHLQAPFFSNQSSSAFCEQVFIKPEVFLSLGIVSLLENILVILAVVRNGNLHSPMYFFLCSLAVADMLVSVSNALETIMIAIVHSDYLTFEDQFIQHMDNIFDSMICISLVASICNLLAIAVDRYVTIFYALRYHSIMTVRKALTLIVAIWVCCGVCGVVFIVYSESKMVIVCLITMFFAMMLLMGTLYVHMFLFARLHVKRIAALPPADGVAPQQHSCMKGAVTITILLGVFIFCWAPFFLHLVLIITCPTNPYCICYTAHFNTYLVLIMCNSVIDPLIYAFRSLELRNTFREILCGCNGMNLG
T1 sequence (P32245 whole entry): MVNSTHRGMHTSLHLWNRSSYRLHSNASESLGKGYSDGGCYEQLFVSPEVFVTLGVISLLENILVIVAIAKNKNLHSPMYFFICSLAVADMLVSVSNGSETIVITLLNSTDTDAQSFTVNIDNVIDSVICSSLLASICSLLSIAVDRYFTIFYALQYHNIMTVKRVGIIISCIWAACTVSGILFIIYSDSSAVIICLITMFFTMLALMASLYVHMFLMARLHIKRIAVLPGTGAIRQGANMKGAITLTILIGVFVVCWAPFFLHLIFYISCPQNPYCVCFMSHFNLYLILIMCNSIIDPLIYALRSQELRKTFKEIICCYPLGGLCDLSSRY

As for `N=C(N)NCCC[C@H]1C[C@@H](OCc2ccccc2)CN1C(=O)[C@H](CC[C@H]1Cc2ccccc2CN1)Cc1ccccc1`, the Ki in assay [1] turned out to be 71 nM; at Melanocortin receptor 3, 382 nM; at Melanocortin receptor 4 [2], 76 nM. This molecule registered an EC50 at Melanocortin receptor 4 [3] of 142 nM. This molecule had an Emax at Melanocortin receptor 4 [3] of 76%.

Take `CNC(=O)[C@H](Cc1ccc2ccccc2c1)NC(=O)[C@H](CCCN=C(N)N)NC(=O)[C@H](CC[C@H](Cc1ccccc1)NC(C)=O)Cc1ccc(F)cc1`: the inhibition constant (Ki) in assay [1] came to 23400 nM; on Melanocortin receptor 3 it was 55500 nM; on Melanocortin receptor 4 [2], 37 nM. The molecule further displayed an EC50 at Melanocortin receptor 4 [3] of 20 nM. For the same molecule, on Melanocortin receptor 4 [3], the Emax came out at 102%.

In the case of `CNC(=O)[C@H](Cc1ccc2ccccc2c1)NC(=O)[C@H](CCCN=C(N)N)NC(=O)[C@H](CC[C@H](Cc1ccc(O)cc1)NC(C)=O)Cc1ccccc1`, the Ki in assay [1] turned out to be 8560 nM; on Melanocortin receptor 3, 24700 nM; at Melanocortin receptor 4 [2] it was 214 nM. Besides, a half-maximal effect on Melanocortin receptor 4 [3] (EC50) was put at 38 nM. In addition, on Melanocortin receptor 4 [3], the Emax was determined as 90%.

Consider `CNC(=O)[C@H](Cc1ccc2ccccc2c1)NC(=O)[C@H](CCCN=C(N)N)NC(=O)[C@@H](Cc1ccccc1)NC(=O)[C@@H]1Cc2ccccc2CN1`, for which the results for the Ki (in assay [1]; at Melanocortin receptor 3; at Melanocortin receptor 4 [2]) were 2280 nM, 1630 nM and 24 nM, respectively. Moreover, the EC50 at Melanocortin receptor 4 [3] came out at 10 nM. On Melanocortin receptor 4 [3], this molecule came in with an Emax of 81%.

For `CNC(=O)[C@H](Cc1ccc2ccccc2c1)NC(=O)[C@H](CCCN=C(N)N)NC(=O)[C@H](CC[C@H](Cc1ccc(Cl)cc1)NC(C)=O)Cc1ccc(F)cc1`, the Ki in assay [1] worked out at 12300 nM; on Melanocortin receptor 3 it was 18000 nM; at Melanocortin receptor 4 [2], 214 nM. At Melanocortin receptor 4 [3], this molecule returned an EC50 of 193 nM. The Emax on Melanocortin receptor 4 [3] came to 100%.

In the case of `CC(=O)N[C@H](Cc1ccc(O)cc1)C(=O)N[C@H](Cc1ccccc1)C(=O)N1C[C@H](OCc2ccccc2)C[C@@H]1CCCN=C(N)N`, the Ki came out at 9 nM in assay [1], 23 nM at Melanocortin receptor 3 and 10 nM at Melanocortin receptor 4 [2]. The EC50 on Melanocortin receptor 4 [3] was 8 nM. The molecule further gave a maximum response (Emax) on Melanocortin receptor 4 [3] of 84%.

`CNC(=O)[C@H](Cc1ccc2ccccc2c1)NC(=O)[C@H](CCCN=C(N)N)NC(=O)[C@H](CC[C@@H]1Cc2ccccc2CN1)Cc1ccccc1`: the figures for the Ki (in assay [1]; at Melanocortin receptor 3; on Melanocortin receptor 4 [2]) were 3990 nM, 2410 nM and 220 nM, respectively. The molecule further returned an EC50 at Melanocortin receptor 4 [3] of 160 nM. At Melanocortin receptor 4 [3], this molecule returned an Emax of 77%.

On to `N=C(N)NCCC[C@H]1C[C@@H](OCc2ccccc2)CN1C(=O)[C@@H](Cc1ccccc1)NC(=O)C1Cc2ccccc2CN1` (single isomer, unassigned), for which the inhibition constant Ki in assay [1] stood at 30 nM; on Melanocortin receptor 3 it was 468 nM; at Melanocortin receptor 4 [2] it was 13 nM. Moreover, the EC50 on Melanocortin receptor 4 [3] came to 22 nM. This molecule registered an Emax at Melanocortin receptor 4 [3] of 89%.

As for `CNC(=O)[C@H](Cc1ccc2ccccc2c1)NC(=O)[C@H](CCCN=C(N)N)NC(=O)[C@@H](Cc1ccccc1)NC(=O)[C@H](Cc1ccc(O)cc1)NC(C)=O` (Ac-Y[dF]R[2Nal]-NHMe), the Ki was found to be 4520 nM in assay [1], 1730 nM at Melanocortin receptor 3 and 104 nM on Melanocortin receptor 4 [2]. The same molecule registered a 50% effective concentration (EC50) on Melanocortin receptor 4 [3] of 44 nM.

For the molecule `CNC(=O)[C@H](Cc1ccc2ccccc2c1)NC(=O)[C@H](CCCN=C(N)N)NC(=O)[C@H](CC[C@H](Cc1ccc(O)cc1)NC(C)=O)Cc1ccc(F)cc1`, the inhibition constant (Ki) in assay [1] was determined as 22300 nM; on Melanocortin receptor 3, 6200 nM; on Melanocortin receptor 4 [2] it was 5 nM. Also, a half-maximal effect at Melanocortin receptor 4 [3] (EC50) was put at 10 nM. Moreover, on Melanocortin receptor 4 [3], the Emax came to 91%.

(Values after ChEMBL document CHEMBL1139021, “Synthesis of Tic-D-Phe Psi[CH2-CH2] isostere and its use in the development of melanocortin receptor agonists” (Bioorg Med Chem Lett, 2006).)
